{"source": "patent US10329289B2", "about": "“6,7-dihydro-5H-pyrrolo[3,4-B]pyridin-5-one allosteric modulators of the M4 muscarinic acetylcholine receptor” (Merck Sharp & Dohme Corp., priority 2015, dated 2019)"}
{"target": "T1, human M4 muscarinic acetylcholine receptor (Homo sapiens, UniProt P08173)", "T1 construct": "expressed in transfected cells; host or cells: CHO-K1", "T1 sequence (P08173 1-479)": "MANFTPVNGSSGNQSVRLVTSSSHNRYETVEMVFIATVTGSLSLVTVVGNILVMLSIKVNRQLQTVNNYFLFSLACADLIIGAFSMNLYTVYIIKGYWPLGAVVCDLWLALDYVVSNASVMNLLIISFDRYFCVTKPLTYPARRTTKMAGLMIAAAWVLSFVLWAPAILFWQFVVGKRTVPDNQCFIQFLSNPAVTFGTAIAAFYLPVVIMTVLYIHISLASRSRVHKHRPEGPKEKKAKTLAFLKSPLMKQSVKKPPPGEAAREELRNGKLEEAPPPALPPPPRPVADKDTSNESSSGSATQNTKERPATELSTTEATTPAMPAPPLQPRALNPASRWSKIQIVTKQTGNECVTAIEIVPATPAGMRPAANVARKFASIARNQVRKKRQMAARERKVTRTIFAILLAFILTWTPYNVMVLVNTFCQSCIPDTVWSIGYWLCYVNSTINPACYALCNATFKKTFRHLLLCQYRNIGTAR", "experiment": "human FLIPR-based M4 PAM assay (Ca2+ mobilization, CHO-K1 cells with human M4 receptor and Gαqi5)", "type": "cell-based", "conditions": "acetylcholine at 20% of maximum response, read-out: M4 PAM IP", "outline": "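Calcium-mobilization (FLIPR) readout in dye-loaded CHO-K1 cells co-expressing human M4 receptor and Gαqi5. Potentiation measured against acetylcholine at a concentration giving 20% of maximal response, with an optional 70% addition; the reported value is the curve inflection point from a 4-parameter logistic fit.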", "units": {"EC50": "nM"}}
{"compound": "Cc1cc2c(nc1N1CC[C@@H](Oc3ccccc3)[C@@H](F)C1)CN(CCO)C2=O", "note": "[Example 237, 2-((3S,4R)-3-fluoro-4-phenoxypiperidin-1-yl)-6-(2-hydroxyethyl)-3-methyl-6,7-dihydro-5H-pyrrolo[3,4-b]pyridin-5-one]", "EC50": 68}
{"compound": "COc1ccc(OC2CCN(c3nc4c(cc3C)C(=O)N(CCO)C4)CC2)cn1", "note": "[Example 238, 6-(2-hydroxyethyl)-2-(4-((6-methoxypyridin-3-yl)oxy)piperidin-1-yl)-3-methyl-6,7-dihydro-5H-pyrrolo[3,4-b]pyridin-5-one]", "EC50": 49}
{"compound": "Cc1cc2c(nc1N1CCC(Oc3cccc(C#N)c3)CC1)CN(CCO)C2=O", "note": "[Example 239, 3-((1-(6-(2-hydroxyethyl)-3-methyl-5-oxo-6,7-dihydro-5H-pyrrolo[3,4-b]pyridin-2-yl)piperidin-4-yl)oxy)benzonitrile]", "EC50": 36}
{"compound": "Cc1cc2c(nc1N1CCC(Oc3ccc4c(cnn4C)c3)CC1)CN(CCO)C2=O", "note": "[Example 239A, 6-(2-hydroxyethyl)-3-methyl-2-(4-((1-methyl-1H-indazol-5-yl)oxy)piperidin-1-yl)-6,7-dihydro-5H-pyrrolo[3,4-b]pyridin-5-one]", "EC50": 86}
{"compound": "Cc1cc2c(nc1N1CCC(Oc3ccccc3)CC1)CN(C)C2=O", "note": "[Example 240, 3,6-dimethyl-2-(4-phenoxypiperidin-1-yl)-6,7-dihydro-5H-pyrrolo[3,4-b]pyridin-5-one]", "EC50": 40}
{"compound": "CCc1cc2c(nc1N1CC[C@@H](Oc3ccc4c(cnn4C)c3)[C@@H](F)C1)CN(CCO)C2=O", "note": "[Example 240A, 3-ethyl-2-((3S,4R)-3-fluoro-4-((1-methyl-1H-indazol-5-yl)oxy)piperidin-1-yl)-6-(2-hydroxyethyl)-6,7-dihydro-5H-pyrrolo[3,4-b]pyridin-5-one]", "EC50": 127}
{"compound": "Cc1cc2c(nc1N1CC[C@@H](Oc3ccccc3)[C@@H](F)C1)CN(C)C2=O", "note": "[Example 241, 2-((3S,4R)-3-fluoro-4-phenoxypiperidin-1-yl)-3,6-dimethyl-6,7-dihydro-5H-pyrrolo[3,4-b]pyridin-5-one]", "EC50": 22}
{"compound": "Cc1cc2c(nc1N1CC[C@@H](Oc3ccc4c(cnn4C)c3)[C@H](F)C1)CN(CCO)C2=O", "note": "[Example 241A, 2-((3R,4R)-3-fluoro-4-((1-methyl-1H-indazol-5-yl)oxy)piperidin-1-yl)-6-(2-hydroxyethyl)-3-methyl-6,7-dihydro-5H-pyrrolo[3,4-b]pyridin-5-one]", "EC50": 93}
{"compound": "CCN1Cc2nc(N3CCC(Oc4cccc(C#N)c4)CC3)c(C)cc2C1=O", "note": "[Example 242, 3-((1-(6-ethyl-3-methyl-5-oxo-6,7-dihydro-5H-pyrrolo[3,4-b]pyridin-2-yl)piperidin-4-yl)oxy)benzonitrile]", "EC50": 74}
{"compound": "CCN1Cc2nc(N3CCC(Oc4ccccc4)CC3)c(C)cc2C1=O", "note": "[Example 243, 6-ethyl-3-methyl-2-(4-phenoxypiperidin-1-yl)-6,7-dihydro-5H-pyrrolo[3,4-b]pyridin-5-one]", "EC50": 73}
{"compound": "CCN1Cc2nc(N3CC[C@@H](Oc4ccccc4)[C@@H](F)C3)c(C)cc2C1=O", "note": "[Example 244, 6-ethyl-2-((3S,4R)-3-fluoro-4-phenoxypiperidin-1-yl)-3-methyl-6,7-dihydro-5H-pyrrolo[3,4-b]pyridin-5-one]", "EC50": 32}
{"compound": "CCN1Cc2nc(N3CCC(Oc4ccc5c(c4)COC5)CC3)c(C)cc2C1=O", "note": "[Example 244A, 2-(4-((1,3-dihydro-2-benzofuran-5-yl)oxy)piperidin-1-yl)-6-ethyl-3-methyl-6,7-dihydro-5H-pyrrolo[3,4-b]pyridin-5-one]", "EC50": 28}
{"compound": "COc1ccc(OC2CCN(c3nc4c(cc3C)C(=O)N(C(C)C)C4)CC2)cn1", "note": "[Example 245, 6-isopropyl-2-(4-((6-methoxypyridin-3-yl)oxy)piperidin-1-yl)-3-methyl-6,7-dihydro-5H-pyrrolo[3,4-b]pyridin-5-one]", "EC50": 75}
{"compound": "Cc1cc2c(nc1N1CCC(Oc3cccc(C#N)c3)CC1)CN(C(C)C)C2=O", "note": "[Example 246, 3-((1-(6-isopropyl-3-methyl-5-oxo-6,7-dihydro-5H-pyrrolo[3,4-b]pyridin-2-yl)piperidin-4-yl)oxy)benzonitrile]", "EC50": 125}
{"compound": "Cc1cc2c(nc1N1CCC(Oc3ccccc3)CC1)CN(C(C)C)C2=O", "note": "[Example 247, 6-isopropyl-3-methyl-2-(4-phenoxypiperidin-1-yl)-6,7-dihydro-5H-pyrrolo[3,4-b]pyridin-5-one]", "EC50": 137}
{"compound": "Cc1cc2c(nc1N1CC[C@@H](Oc3ccccc3)[C@@H](F)C1)CN(C(C)C)C2=O", "note": "[Example 248, 2-((3S,4R)-3-fluoro-4-phenoxypiperidin-1-yl)-6-isopropyl-3-methyl-6,7-dihydro-5H-pyrrolo[3,4-b]pyridin-5-one]", "EC50": 88}
{"compound": "Cc1cc2c(nc1N1CCC(Oc3cccc(C#N)c3)CC1)CN(C1CC1)C2=O", "note": "[Example 249, 3-((1-(6-cyclopropyl-3-methyl-5-oxo-6,7-dihydro-5H-pyrrolo[3,4-b]pyridin-2-yl)piperidin-4-yl)oxy)benzonitrile]", "EC50": 32}
{"compound": "Cc1cc2c(nc1N1CCC(Oc3ccccc3)CC1)CN(C1CC1)C2=O", "note": "[Example 250, 6-cyclopropyl-3-methyl-2-(4-phenoxypiperidin-1-yl)-6,7-dihydro-5H-pyrrolo[3,4-b]pyridin-5-one]", "EC50": 149}
{"compound": "COc1ccc(OC2CCN(c3nc4c(cc3C)C(=O)N(CC3COC3)C4)CC2)cn1", "note": "[Example 250A, 2-(4-((6-methoxypyridin-3-yl)oxy)piperidin-1-yl)-3-methyl-6-(oxetan-3-ylmethyl)-6,7-dihydro-5H-pyrrolo[3,4-b]pyridin-5-one]", "EC50": 70}
{"compound": "COCCCN1Cc2nc(N3CCC(Oc4ccc(OC)nc4)CC3)c(C)cc2C1=O", "note": "[Example 251, 6-(3-methoxypropyl)-2-(4-((6-methoxypyridin-3-yl)oxy)piperidin-1-yl)-3-methyl-6,7-dihydro-5H-pyrrolo[3,4-b]pyridin-5-one]", "EC50": 198}
{"compound": "COCCN1Cc2nc(N3CCC(Oc4ccc(OC)nc4)CC3)c(C)cc2C1=O", "note": "[Example 252, 6-(2-methoxyethyl)-2-(4-((6-methoxypyridin-3-yl)oxy)piperidin-1-yl)-3-methyl-6,7-dihydro-5H-pyrrolo[3,4-b]pyridin-5-one]", "EC50": 94}
{"compound": "Cc1cc2c(nc1N1CCC(Oc3ccc(F)cc3)CC1)CN(C)C2=O", "note": "[Example 253, 2-(4-(4-fluorophenoxy)piperidin-1-yl)-3,6-dimethyl-6,7-dihydro-5H-pyrrolo[3,4-b]pyridin-5-one]", "EC50": 49}
{"compound": "CCOc1ccc(OC2CCN(c3nc4c(cc3C)C(=O)N(CCO)C4)CC2)cn1", "note": "[Example 254, 2-(4-((6-ethoxypyridin-3-yl)oxy)piperidin-1-yl)-6-(2-hydroxyethyl)-3-methyl-6,7-dihydro-5H-pyrrolo[3,4-b]pyridin-5-one]", "EC50": 69}
{"compound": "Cc1cc2c(nc1N1CC[C@@H](Oc3ccc4c(c3)COC4)[C@@H](F)C1)CN(CCO)C2=O", "note": "[Example 255, 2-((3S,4R)-4-((1,3-dihydro-2-benzofuran-5-yl)oxy)-3-fluoropiperidin-1-yl)-6-(2-hydroxyethyl)-3-methyl-6,7-dihydro-5H-pyrrolo[3,4-b]pyridin-5-one]", "EC50": 29}
{"compound": "COc1ccc(OC2CCN(c3nc4c(cc3C)C(=O)N(CC3COC3)C4CC3COC3)CC2)cn1", "note": "(stereo not shown) [Example 255A, 2-(4-((6-methoxypyridin-3-yl)oxy)piperidin-1-yl)-3-methyl-6,7-bis(oxetan-3-ylmethyl)-6,7-dihydro-5H-pyrrolo[3,4-b]pyridin-5-one]", "EC50": 803}
